The values that follow come from patent publication US6288100A, “Benzimidazole derivatives” (American Home Products Corporation, priority 1995, dated 2001).

Where a name gives a salt, the structure may show the parent alone.

In data set [1] the test system is porcine aortic smooth muscle cells. Put plainly: Porcine smooth muscle cell antiproliferation, serum stimulation (3H thymidine incorporation). Type of data set: cell-based. The settings on record: serum-stimulated.
Description: (§2) The ability of the compounds of the present invention to inhibit smooth muscle cell proliferation was established using isolated porcine aortic smooth muscle cells in a modification of the procedure of Castellot et al. J. Biol. Chem 257(19) 11256 (1982), as follows:
(§3) Fresh porcine aortas, scrupulously cleansed of fatty tissue, are rinsed in sterile phosphate-buffered saline with 2% antibiotic-antimycotic (100×) liquid (10,000 units of penicillin (base), 10,000 μg of streptomycin (base), and 25 μg of amphotericin B/mL utilizing penicillin G (sodium salt), streptomycin sulfate, and amphotericin B as Fungizone® in 0.85% saline, available from Gibco Laboratories, Grand Island Biological Co., Grand Island, N.Y.). The tissue is then digested in 10-15 mL of an enzyme solution containing collagenase type I, 165 U/mL; elastase type III, 15 U/mL; BSA, 2 mg/mL; and soybean trypsin inhibitor, 0.375 mg/mL, followed by incubation at 37° C. under 5% CO2 atmosphere for 10 to 15 minutes. After this treatment, the outer surface adventitia is removed by peeling with a forceps. The aorta is then longitudinally cut and laid open and the endothelial layer is removed by scraping.
(§4) The medial layer of cells is rinsed in the enzyme solution, and placed in a new 100 mm dish with 10 mL of enzyme solution. The medial layer of cells is minced using a fine pair of scissors and digested for 2-3 hours at 37° C. in 30 mL of fresh enzyme solution. After digestion, the medial tissue is homogenized using a sterile Pasteur pipette with a fire polished tip or an Eppendorf pipetter with a 200-1000 μL sterile pipette tip. The suspension is then centrifuged for 10 minutes at 8000 rpm and the pellet is suspended in 4-6 mL of fresh enzyme solution and plated onto 4-6 100 mm flasks with vented caps. The cells are then allowed to grow to confluence and split using 0.25% trypsin. The cells are evaluated for purity and overall quality using antibody to SMC actin.
(§5) The cells are assayed in early passage (generally passage 3-7) at sub-confluent conditions. Cultures are grown in 16 mm (24 well) multi-well culture dishes in media 199 supplemented with 10% fetal bovine serum and 2% antibiotic/antimycotic. At subconfluence, the cells are placed in a defined serum free, lymphocyte medium (AIM-V; Gibco) for 24-48 hours prior to initiating the experimental protocoL
(§6) The standard test procedure is initiated by addition of the test compound, ^3 H thymidine and serum or a specific growth factor to the serum deprived synchronized cells. Growth factor and serum stimulations are optimized for each cell type. The test compounds are added to each well at 50 fold dilution (20 μL/well) and the plates are incubated for 24-36 hours at 37° C. in 5% CO2 atmosphere. Test compounds are dissolved in 50% ethanol and assayed at 1, 10, and 100 μM. As a control, RG 50872 (Bilder, G. A.; et al., Am. J. Cell Physiol., 1991; 260: C721) is routinely assayed under the conditions of each cell preparation at a concentration of 5 μM.
(§7) At the completion of the experiment, the plates are placed on ice, washed three times with ice cold PBS and incubated in ice cold 10% trichloroacetic acid (TCA) for 30 minutes to remove acid soluble proteins. Each solution is transferred to a scintillation vial containing 0.4N HCl (500 μL/vial to neutralize NaOH) and each well is rinsed two times with water (500 μL) for a total volume of 2 mL/vial.
(§8) Data is quantitated by subjecting the vials to a scintillation counter, in triplicate, for both control and experimental samples. […] Experimental data is obtained from cells maximally stimulated with growth factor or serum and treated with a test compound. (The platelet-derived growth factor used in the assay was human recombinant PDGF-AB purchased from Upstate Biotechnology Inc., Lake Placid, N.Y.). Data is expressed as a percent of control from which IC50 s are determined.
For data set [2] the test system is unchanged. The experiment in a line: Porcine smooth muscle cell antiproliferation, PDGF stimulation (3H thymidine incorporation). Format: cell-based. The conditions noted are these: PDGF-stimulated (human recombinant PDGF-AB).
Description: as §2, §3, §4, §5, §6, §7, §8
The subject of data set [3] is porcine smooth muscle cells. Put plainly: Cytotoxicity, modified MTT assay, % viable cells. Type of data set: cell-based. Further details: dose or concentration left out as unconfirmed. The conditions noted are these: serum-free medium, 24 hours, 37° C. On the procedure: (§1) To distinguish cytotoxicity from the ability of a compound to prevent proliferation, the test compounds were examined using a commercial modification of the MTT assay. Briefly, cells were grown in 24 well plates to 70-80% confluency. The cells were serum deprived for 24-48 hours prior to initiation of the experimental protocol. To insure that the MTT assay monitored toxicity rather than proliferation, the cells were incubated with […] test compound in fresh medium without serum for 24 hours at 37° C. in a humidified CO2 incubator. Upon completion of the compound treatment, MTT indicator dye was added for 4 hours at 37° C. Cells were then solubilized and aliquots from each well were transferred to a 96-well plate for analysis. Absorbance at 570 nm wavelength with a reference wavelength of 630 nm was recorded using an ELISA plate reader.

Data set [4] is described as follows: Cytotoxicity, modified MTT assay, % viable cells. Type of data set: cell-based, porcine. Further details: dose or concentration left out as unconfirmed. The settings on record: pig, smooth muscle cells, serum-free medium, 37° C. The protocol: as §1

In the case of “4-[5-(Hydroxy-(phenyl)-methyl)-2-propyl -benzoimidazol-1-ylmethyl]-benzoic acid [Example 6]”, the “Porcine Smooth Muscle Cell Antiproliferation, Serum, % Inhibition at 20 μM” value in data set [1] (20 μM) is 45.9%. The IC50 in data set [2] came out at 11.2 µM. Also, the “Cytotoxicity, % Viable Cells” value in data set [3] is reported as 85.5%.
`CCCc1nc2cc(C(=O)c3ccccc3)ccc2[nH]1` [Example 1, Phenyl-(2-propyl-1H-benzoimidazol-5-yl)-methanone] gave an inhibition at 20 µM in data set [1] (Sus scrofa, 20 μM) of 39.4%. Also, the IC50 in data set [2] (Sus scrofa) came to 12.9 µM. The viability at 24 h in data set [4] came out at 80%.
As for `CCCc1nc2cc(C(=O)c3ccccc3)ccc2n1Cc1ccc(C(=O)OCC)cc1` [Example 2, 4-(5-Benzoyl-2-propyl-benzoimidazol-1-ylmethyl) -benzoic acid ethyl ester], the IC50 came to 1.04 µM in data set [1] (Sus scrofa) and 1.17 µM in data set [2] (Sus scrofa). Besides, the viability at 24 h in data set [4] amounted to 100%.
Consider `CCCc1nc2ccc(C(=O)c3ccccc3)cc2n1Cc1ccc(C(=O)OCC)cc1` [Example 3, 4-(6-Benzoyl-2-propyl-benzoimidazol-1-ylmethyl) -benzoic acid ethyl ester], for which the figures for the concentration for half-maximal inhibition (IC50) in data set [1] (Sus scrofa) and in data set [2] (Sus scrofa) were 1.58 µM and 1.23 µM, respectively. The molecule further returned a viability at 24 h in data set [4] of 100%.
In the case of `CCCc1nc2ccc(C(=O)c3ccccc3)cc2n1Cc1ccc(C(=O)O)cc1` [Example 4, 4-(6-Benzoyl-2-propyl-benzoimidazol-1-ylmethyl) benzoic acid], testing at 20 µM in data set [1] (Sus scrofa, 20 μM) gave an inhibition of 61.8%. Besides, the “Porcine Smooth Muscle Cell Antiproliferation, PDGF, % Inhibition (concentration not given)” value in data set [2] (concentration not given) is given as 0%. Besides, the viability at 24 h in data set [4] was 100%.
With `CCCc1nc2cc(C(=O)c3ccccc3)ccc2n1Cc1ccc(C(=O)O)cc1` [Example 5, 4-(5-Benzoyl-2-propyl-benzoimidazol-1-ylmethyl)-benzoic acid], the inhibition at 20 µM in data set [1] (Sus scrofa, 20 μM) stood at 41%. In addition, the concentration for half-maximal inhibition (IC50) in data set [2] (Sus scrofa) stood at 15.9 µM. In addition, the viability at 24 h in data set [4] stood at 78%.
The molecule `CCCc1nc2cc(C(O)c3ccccc3)ccc2n1Cc1ccc(C(=O)O)cc1` (stereo not drawn) [Example 7, 4-[5-(Hydroxy-(phenyl)-methyl)-2-propyl-benzoimidazol-1-ylmethyl]-benzoic acid hydrochloride] displayed an inhibition at 10 µM in data set [1] (Sus scrofa, 10 μM) of 36%. Also, the half-inhibitory concentration (IC50) in data set [2] (Sus scrofa) turned out to be 17.6 µM. In addition, in data set [4], the viability at 24 h was found to be 85%.
Consider `CCCc1nc2cc(C(=O)c3ccccc3)ccc2n1Cc1ccc(Cl)c(Cl)c1` [Example 8, [1-(3,4-Dichloro-benzyl)-2-propyl-1H-benzoimidazol-5-yl]-phenyl-methanone], for which, in data set [1] (Sus scrofa, 20 μM), the inhibition at 20 µM amounted to 90%. The concentration for half-maximal inhibition (IC50) in data set [2] (Sus scrofa) was 0.096 to 0.465 µM. Besides, the viability at 24 h in data set [4] turned out to be 100%.
For the molecule `COc1cc(-c2nc3cc(C(=O)c4ccccc4)ccc3[nH]2)ccc1O` [Example 9, [2-(4-Hydroxy-3-methoxy-phenyl)1H-benzoimidazol-5-yl]-phenyl-methanone], the results for the IC50 in data set [1] (Sus scrofa) and in data set [2] (Sus scrofa) were 8.03 to 11.4 µM and 3.74 to 4.14 µM, respectively. Moreover, in data set [4], the viability at 24 h turned out to be 100%.
On the same counts, the results for `CCCCCCOc1ccc(-c2nc3cc(C(=O)c4ccccc4)ccc3[nH]2)cc1OC` [Example 10, [2-(4-Hexyloxy-3-methoxy-phenyl)-1H benzoimidazol-5-yl]phenyl-methanone] are 13.5 µM, 0.762 µM and 100%.
The corresponding values for `O=C(c1ccccc1)c1ccc2[nH]c(-c3ccc(OC(F)(F)F)cc3)nc2c1` [Example 11, Phenyl-[2-(4-trifluoromethoxy-phenyl)-1H -benzoimidazol-5-yl]methanone] are 1.82 µM, 7.7 µM and 100%.
On the same counts, the results for `COc1ccc(Cc2nc3cc(C(=O)c4ccccc4)ccc3[nH]2)cc1OC` [Example 12, [2-(3,4-Dimethoxybenzyl)-1H-benzoimidazol-5-yl]-phenyl-methanone] are 7.74 µM, 0.081 to 0.14 µM and 100%.
